In the supplement of paper PMC10307832:

What was measured:
Assay in all cases: relative viability (nuclei count vs DMSO), 5 days (fraction); higher = more cells survive
IU1-47 + Pemetrexed = compound: CC1=CC(=C(N1C2=CC=C(C=C2)Cl)C)C(=O)CN3CCCCC3 [IU1-47] + Nc1nc2[nH]cc(CCc3ccc(C(=O)N[C@@H](CCC(=O)O)C(=O)O)cc3)c2c(=O)[nH]1 [Pemetrexed] (partner 0.2 µM)
How it was run: (§1)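 Lung cancer cell lines, seeded in 1536-well plates, were treated the following day by pin tool with a single drug or with five library-drug doses (not always all listed) in √10 steps on top of a fixed anchor-drug dose. Cells were fixed and nuclei stained in one step after 5 days, and nuclei were counted. Relative viability is the nuclei count for treated wells divided by that for vehicle wells, reported as medians of duplicate plates.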

FG-4592 + Phenformin = compound: Cc1nc(C(=O)NCC(=O)O)c(O)c2ccc(Oc3ccccc3)cc12 [FG-4592] + N=C(N)NC(=N)NCCc1ccccc1 [Phenformin] (partner 250 µM)
How it was run: as §1

IU1-47 + AZD7762 = compound: CC1=CC(=C(N1C2=CC=C(C=C2)Cl)C)C(=O)CN3CCCCC3 [IU1-47] + NC(=O)Nc1cc(-c2cccc(F)c2)sc1C(=O)N[C@H]1CCCNC1 [AZD7762] (partner 0.2 µM)
How it was run: as §1

IU1-47 + Tozasertib = compound: CC1=CC(=C(N1C2=CC=C(C=C2)Cl)C)C(=O)CN3CCCCC3 [IU1-47] + Cc1cc(Nc2cc(N3CCN(C)CC3)nc(Sc3ccc(NC(=O)C4CC4)cc3)n2)n[nH]1 [Tozasertib] (partner 0.1 µM)
How it was run: as §1

Row | Cell Line | relative viability (IU1-47 + Pemetrexed; first compound 0.08 µM) | relative viability (IU1-47 + Pemetrexed; first compound 0.253 µM) | relative viability (IU1-47 + Pemetrexed; first compound 0.8 µM) | relative viability (IU1-47 + Pemetrexed; first compound 2.53 µM) | relative viability (IU1-47 + Pemetrexed; first compound 8 µM) | relative viability (FG-4592 + Phenformin; first compound 0.08 µM) | relative viability (FG-4592 + Phenformin; first compound 0.253 µM) | relative viability (FG-4592 + Phenformin; first compound 0.8 µM) | relative viability (FG-4592 + Phenformin; first compound 2.53 µM) | relative viability (FG-4592 + Phenformin; first compound 8 µM) | relative viability (IU1-47 + AZD7762; first compound 0.08 µM) | relative viability (IU1-47 + AZD7762; first compound 0.253 µM) | relative viability (IU1-47 + AZD7762; first compound 0.8 µM) | relative viability (IU1-47 + AZD7762; first compound 2.53 µM) | relative viability (IU1-47 + AZD7762; first compound 8 µM) | relative viability (IU1-47 + Tozasertib; first compound 0.08 µM) | relative viability (IU1-47 + Tozasertib; first compound 0.253 µM) | relative viability (IU1-47 + Tozasertib; first compound 0.8 µM) | relative viability (IU1-47 + Tozasertib; first compound 2.53 µM) | relative viability (IU1-47 + Tozasertib; first compound 8 µM)
1 | LOU-NH91 | 0.389 | 0.386 | 0.526 | 0.38 | 0.35 | 0.673 | 0.647 | 0.551 | 0.677 | 0.677 | 0.824 | 0.775 | 0.826 | 0.815 | 0.765 | 0.638 | 0.693 | 0.702 | 0.737 | 0.592
2 | LU99A | 0.178 | 0.227 | 0.155 | 0.187 | 0.191 | 0.839 | 0.774 | 0.706 | 0.82 | 0.921 | 0.404 | 0.412 | 0.401 | 0.33 | 0.292 | 0.283 | 0.266 | 0.282 | 0.314 | 0.231
3 | LXF-289 | 0.888 | 0.886 | 0.851 | 0.945 | 0.856 | 0.518 | 0.479 | 0.527 | 0.457 | 0.51 | 1.25 | 1.14 | 1.21 | 1.07 | 1.02 | 0.212 | 0.203 | 0.224 | 0.22 | 0.171
4 | NCI-H23 | 0.608 | – | 0.59 | 0.708 | 0.692 | 0.794 | 0.789 | 0.844 | 0.767 | 0.76 | 0.229 | – | 0.227 | 0.18 | 0.243 | 0.364 | 0.341 | 0.427 | 0.376 | 0.341
5 | NCI-H322M | 0.662 | 0.648 | 0.829 | 0.582 | 0.607 | 0.597 | 0.716 | 0.728 | 0.715 | 0.708 | 0.671 | 0.696 | 0.54 | 0.615 | 0.488 | 0.496 | 0.558 | 0.506 | 0.54 | 0.477
6 | NCI-H358 | 0.156 | 0.169 | 0.172 | 0.184 | 0.165 | 0.361 | 0.293 | 0.372 | 0.324 | 0.5 | 0.576 | 0.521 | 0.5 | 0.405 | 0.435 | 0.089 | 0.103 | 0.0989 | 0.0928 | 0.0979
7 | NCI-H441 | 0.255 | 0.273 | 0.278 | 0.306 | 0.265 | 0.876 | 0.69 | 0.928 | 0.686 | 0.848 | 1.38 | 1.36 | 1.19 | 1.18 | 1.21 | 0.824 | 0.713 | 0.667 | 0.662 | 0.544
8 | NCI-H460 | 0.0569 | 0.0572 | 0.0551 | 0.0515 | 0.0695 | 0.538 | 0.521 | 0.548 | 0.54 | 0.491 | 0.639 | 0.635 | 0.686 | 0.754 | 0.628 | 0.459 | 0.513 | 0.496 | 0.57 | 0.393
9 | NCI-H522 | 0.923 | 0.975 | 1.02 | 0.735 | 0.958 | 0.711 | 0.583 | 0.562 | 0.669 | 0.641 | 0.889 | 0.726 | 0.969 | 0.691 | 1 | 0.52 | 0.523 | 0.516 | 0.489 | 0.519
10 | NCI-H596 | 0.491 | – | 0.494 | 0.508 | 0.446 | 0.637 | 0.712 | 0.512 | 0.72 | 0.473 | 1.06 | – | 1.03 | 0.889 | 1.03 | 0.935 | 0.978 | 0.864 | 0.887 | 0.954
11 | NCI-H647 | 0.155 | 0.189 | 0.182 | 0.166 | 0.159 | 0.435 | 0.536 | 0.46 | 0.467 | 0.457 | 0.551 | 0.392 | 0.486 | 0.386 | 0.29 | 0.372 | 0.309 | – | 0.248 | 0.306
12 | NCI-H650 | 1.01 | 1.1 | 0.965 | 0.878 | 1 | 0.393 | 0.445 | 0.406 | 0.49 | 0.437 | 1.22 | 1 | 1.06 | 0.947 | 1.24 | 0.759 | 0.824 | 0.751 | 0.779 | 0.698
13 | NCI-H838 | 0.241 | 0.233 | 0.259 | 0.274 | 0.246 | 0.545 | 0.581 | 0.5 | 0.505 | 0.583 | 0.931 | 0.99 | 0.917 | 0.925 | 0.876 | 0.268 | 0.28 | 0.297 | 0.301 | 0.248
14 | NCI-H1355 | 1.06 | 1.08 | 1.12 | – | 1.07 | 0.378 | 0.422 | 0.358 | 0.431 | 0.449 | 0.798 | 0.957 | 0.844 | – | 0.584 | 0.483 | 0.606 | 0.506 | – | 0.546
15 | NCI-H1395 | 0.888 | 0.853 | 0.747 | 0.508 | 0.738 | 0.408 | 0.46 | 0.397 | 0.408 | 0.415 | 0.422 | 0.336 | 0.414 | 0.384 | 0.392 | 0.739 | 0.692 | 0.835 | 0.8 | 0.718
16 | NCI-H1437 | 0.336 | 0.336 | 0.314 | 0.308 | 0.311 | 0.297 | 0.355 | 0.343 | 0.287 | 0.31 | 1.14 | 1.11 | 1.12 | 1.05 | 1.1 | 0.413 | 0.396 | 0.396 | 0.398 | 0.347
